What was measured:
Format in all cases: physicochemical
[1] = Stability of polymorph towards atmospheric moisture (hydration and conversion); conditions: must be protected from atmospheric moisture, hydrates to Form I
Source text: If so desired, the above-described procedures for producing bromfenac sodium Form I may be adapted and modified so as to provide a product that is a mixture of bromfenac sodium Form I and bromfenac sodium Form II. Bromfenac sodium Form II is a polymorph that is believed to be a monohydrate of bromfenac sodium, i.e., containing one water molecule per molecule of bromfenac sodium, and characterized by a powder x-ray diffraction pattern having main peaks expressed as 2-theta at about 11.3, 14.4, 16.5, 17.3, 18.5, 19.4, 20.7, 21.0, 22.7, 29.0, 31.8, 34.1 and 36.1 degrees. Drying the crystalline product initially obtained in the crystallization process described above under a vacuum results in the removal of some water of hydration from the sesquihydrate and the formation of the Form II polymorph, as evidenced by XRPD. The vacuum drying conditions may be adjusted so as to vary the Form II polymorph content of the product obtained. For example, higher drying temperatures, lower pressures, and increased drying times will generally all increase the amount of bromfenac sodium Form II present. It is believed that such parameters may be selected so as to provide bromfenac sodium Form II in substantially pure form (i.e., substantially free of any bromfenac sodium Form I or any other polymorph). […]

[2] = Water adsorption under wet nitrogen hydration conditions in vacuum oven; conditions: 30-35° C. vacuum oven (5 mm Hg), 17 hours
[3] = Rate of dissolution in water; conditions: compared with bromfenac sodium Form I or other hydrated forms
[4] = Stability of Form I polymorph on exposure to water vapour (XRPD and water content analyses); conditions: moisturized alongside a dish of water in a bag sealed under nitrogen for 19 h
Protocol: Sodium salt of 2-amino-3-(4-bromobenzoyl)phenylacetic acid, Form I polymorph (0.6 g) was placed in a drying dish alongside a dish containing water (20 g) in a plastic bag. The bag was sealed under nitrogen and the product allowed to moisturize for 19 h.

For Nc1c(CC(=O)[O-])cccc1C(=O)c1ccc(Br)cc1.[Na+] [Bromfenac sodium Form II, sodium salt of 2-amino-3-(4-bromobenzoyl)phenylacetic acid], the “stability of the polymorph” value [1] was “not stable”.
With Nc1c(CC(=O)[O-])cccc1C(=O)c1ccc(Br)cc1.[Na+] [Bromfenac sodium Form III, sodium salt of 2-amino-3-(4-bromobenzoyl)phenylacetic acid] the “water content of sample after wet nitrogen hydration conditions” value [2] was “did not change” and the “rate of dissolution in water” value [3] was “significantly lower”.
With Nc1c(CC(=O)[O-])cccc1C(=O)c1ccc(Br)cc1.Nc1c(CC(=O)[O-])cccc1C(=O)c1ccc(Br)cc1.O.O.O.[Na+].[Na+] [Bromfenac sodium Form I, sodium salt of 2-amino-3-(4-bromobenzoyl)phenylacetic acid, sesquihydrate] the “change in polymorphic form (XRPD and water content analyses)” value [4] was “no change in polymorphic form”.
